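The compound was tested at five concentrations on cells cultured in 96-well plates, with a 48-hour exposure period. GI50 = concentration required for 50% inhibition of growth. TGI: concentration producing complete growth inhibition.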
Legend:
Experiment in all cases: growth of human tumour cells (NCI), 48 h
HT29 colon = system: HT29 colon
A498 renal = system: A498 renal
SNB-75 CNS = system: SNB-75 CNS
HL-60(TB) leukemia = system: HL-60(TB) leukemia
NCI-H460 lung = system: NCI-H460 lung
NCI-H522 lung = system: NCI-H522 lung
786-0 renal = system: 786-0 renal
SF-295 CNS = system: SF-295 CNS
T-47D breast = system: T-47D breast
M14 melanoma = system: M14 melanoma
UACC-257 melanoma = system: UACC-257 melanoma
SR leukemia = system: SR leukemia
MCF7 breast = system: MCF7 breast
HOP-92 NSCLC = system: HOP-92 NSCLC
LOX IMVI melanoma = system: LOX IMVI melanoma
SNB-19 CNS = system: SNB-19 CNS
CCRF-CEM leukemia = system: CCRF-CEM leukemia
U251 CNS = system: U251 CNS
SK-MEL-5 melanoma = system: SK-MEL-5 melanoma
OVCAR-8 ovarian = system: OVCAR-8 ovarian
HCC-2998 colon = system: HCC-2998 colon
EKVX NSCLC = system: EKVX NSCLC
SF-268 CNS = system: SF-268 CNS
MOLT-4 leukemia = system: MOLT-4 leukemia
DU-145 prostate = system: DU-145 prostate
NCI-H23 lung = system: NCI-H23 lung
SK-MEL-2 melanoma = system: SK-MEL-2 melanoma
HOP-62 NSCLC = system: HOP-62 NSCLC
CAKI-1 renal = system: CAKI-1 renal
MDA-MB-231 breast = system: MDA-MB-231 breast
OVCAR-3 ovarian = system: OVCAR-3 ovarian
SK-MEL-28 melanoma = system: SK-MEL-28 melanoma
K-562 leukemia = system: K-562 leukemia
ACHN renal = system: ACHN renal
COLO 205 colon = system: COLO 205 colon
OVCAR-5 ovarian = system: OVCAR-5 ovarian
NCI-H226 lung = system: NCI-H226 lung
TK-10 renal = system: TK-10 renal
A549 NSCLC = system: A549 NSCLC
HCT-15 colon = system: HCT-15 colon
SN12C renal = system: SN12C renal
KM12 colon = system: KM12 colon
UACC-62 melanoma = system: UACC-62 melanoma
SF-539 CNS = system: SF-539 CNS
PC-3 prostate = system: PC-3 prostate
SK-OV-3 ovarian = system: SK-OV-3 ovarian
MALME-3M melanoma = system: MALME-3M melanoma
RPMI-8226 leukemia = system: RPMI-8226 leukemia
HS 578T breast = system: HS 578T breast
SW-620 colon = system: SW-620 colon
BT-549 breast = system: BT-549 breast
HCT-116 colon = system: HCT-116 colon
RXF 393 renal = system: RXF 393 renal
NCI/ADR-RES ovarian = system: NCI/ADR-RES ovarian
IGROV1 ovarian = system: IGROV1 ovarian
OVCAR-4 ovarian = system: OVCAR-4 ovarian
UO-31 renal = system: UO-31 renal
MDA-MB-435 = system: MDA-MB-435

Compound: CCN1CCC(C(=O)Nc2n[nH]c3nnc(-c4cccc(F)c4F)cc23)CC1
- GI50 (HT29 colon): 5.02 µM
- TGI (HT29 colon): > 25 µM
- GI50 (A498 renal): 0.543 µM
- TGI (A498 renal): > 6.6 µM
- GI50 (SNB-75 CNS): 0.821 µM
- TGI (SNB-75 CNS): > 19.3 µM
- GI50 (HL-60(TB) leukemia): 8.16 µM
- TGI (HL-60(TB) leukemia): 19.5 µM
- GI50 (NCI-H460 lung): 7.96 µM
- TGI (NCI-H460 lung): > 25 µM
- GI50 (NCI-H522 lung): 6.68 µM
- TGI (NCI-H522 lung): > 17 µM
- GI50 (786-0 renal): 6.32 µM
- TGI (786-0 renal): > 25 µM
- GI50 (SF-295 CNS): 5.73 µM
- TGI (SF-295 CNS): > 25 µM
- GI50 (T-47D breast): 4.42 µM
- TGI (T-47D breast): > 20.1 µM
- GI50 (M14 melanoma): 11.4 µM
- TGI (M14 melanoma): > 25 µM
- GI50 (UACC-257 melanoma): 11.9 µM
- TGI (UACC-257 melanoma): > 25 µM
- GI50 (SR leukemia): 9.61 µM
- TGI (SR leukemia): > 25 µM
- GI50 (MCF7 breast): 2.2 µM
- TGI (MCF7 breast): > 12.8 µM
- GI50 (HOP-92 NSCLC): 8.03 µM
- TGI (HOP-92 NSCLC): > 23.9 µM
- GI50 (LOX IMVI melanoma): 5.59 µM
- TGI (LOX IMVI melanoma): > 25 µM
- GI50 (SNB-19 CNS): 12 µM
- TGI (SNB-19 CNS): > 25 µM
- GI50 (CCRF-CEM leukemia): 6.75 µM
- TGI (CCRF-CEM leukemia): > 25 µM
- GI50 (U251 CNS): 6.17 µM
- TGI (U251 CNS): > 25 µM
- GI50 (SK-MEL-5 melanoma): 1.62 µM
- TGI (SK-MEL-5 melanoma): 7.46 µM
- GI50 (OVCAR-8 ovarian): 9.46 µM
- TGI (OVCAR-8 ovarian): > 25 µM
- GI50 (HCC-2998 colon): 16 µM
- TGI (HCC-2998 colon): > 25 µM
- GI50 (EKVX NSCLC): 16.9 µM
- TGI (EKVX NSCLC): > 25 µM
- GI50 (SF-268 CNS): 9.08 µM
- TGI (SF-268 CNS): > 25 µM
- GI50 (MOLT-4 leukemia): 12.1 µM
- TGI (MOLT-4 leukemia): > 25 µM
- GI50 (DU-145 prostate): 10.3 µM
- TGI (DU-145 prostate): 24.6 µM
- GI50 (NCI-H23 lung): 16.5 µM
- TGI (NCI-H23 lung): > 25 µM
- GI50 (SK-MEL-2 melanoma): 4.84 µM
- TGI (SK-MEL-2 melanoma): 14.2 µM
- GI50 (HOP-62 NSCLC): 7.62 µM
- TGI (HOP-62 NSCLC): > 19.3 µM
- GI50 (CAKI-1 renal): > 25 µM
- TGI (CAKI-1 renal): > 25 µM
- GI50 (MDA-MB-231 breast): 5.51 µM
- TGI (MDA-MB-231 breast): 20.3 µM
- GI50 (OVCAR-3 ovarian): 2.78 µM
- TGI (OVCAR-3 ovarian): > 14.2 µM
- GI50 (SK-MEL-28 melanoma): 8.35 µM
- TGI (SK-MEL-28 melanoma): > 18.4 µM
- GI50 (K-562 leukemia): 8.39 µM
- TGI (K-562 leukemia): > 25 µM
- GI50 (ACHN renal): 9.68 µM
- TGI (ACHN renal): > 25 µM
- GI50 (COLO 205 colon): 4.61 µM
- TGI (COLO 205 colon): 9.17 µM
- GI50 (OVCAR-5 ovarian): 13.9 µM
- TGI (OVCAR-5 ovarian): > 25 µM
- GI50 (NCI-H226 lung): 3.41 µM
- TGI (NCI-H226 lung): 11.9 µM
- GI50 (TK-10 renal): 11.3 µM
- TGI (TK-10 renal): > 25 µM
- GI50 (A549 NSCLC): 10.5 µM
- TGI (A549 NSCLC): > 25 µM
- GI50 (HCT-15 colon): > 25 µM
- TGI (HCT-15 colon): > 25 µM
- GI50 (SN12C renal): 9.49 µM
- TGI (SN12C renal): > 25 µM
- GI50 (KM12 colon): 6.1 µM
- TGI (KM12 colon): > 18.2 µM
- GI50 (UACC-62 melanoma): 10.2 µM
- TGI (UACC-62 melanoma): > 25 µM
- GI50 (SF-539 CNS): 3.98 µM
- TGI (SF-539 CNS): 18.3 µM
- GI50 (PC-3 prostate): 10.1 µM
- TGI (PC-3 prostate): > 25 µM
- GI50 (SK-OV-3 ovarian): 2.33 µM
- TGI (SK-OV-3 ovarian): 23.4 µM
- GI50 (MALME-3M melanoma): > 22.6 µM
- TGI (MALME-3M melanoma): > 25 µM
- GI50 (RPMI-8226 leukemia): > 25 µM
- TGI (RPMI-8226 leukemia): > 25 µM
- GI50 (HS 578T breast): 3.68 µM
- TGI (HS 578T breast): > 23.1 µM
- GI50 (SW-620 colon): 10.4 µM
- TGI (SW-620 colon): > 25 µM
- GI50 (BT-549 breast): 12.2 µM
- TGI (BT-549 breast): > 25 µM
- GI50 (HCT-116 colon): 7.36 µM
- TGI (HCT-116 colon): > 25 µM
- GI50 (RXF 393 renal): 0.403 µM
- TGI (RXF 393 renal): 5.78 µM
- GI50 (NCI/ADR-RES ovarian): > 25 µM
- TGI (NCI/ADR-RES ovarian): > 25 µM
- GI50 (IGROV1 ovarian): > 21.4 µM
- TGI (IGROV1 ovarian): > 25 µM
- GI50 (OVCAR-4 ovarian): 7.04 µM
- TGI (OVCAR-4 ovarian): 22 µM
- GI50 (UO-31 renal): > 25 µM
- TGI (UO-31 renal): > 25 µM
- GI50 (MDA-MB-435): 10.5 µM
- TGI (MDA-MB-435): > 25 µM

Source: PubChem BioAssay (NCI)
